Experimental data published in ChEMBL document CHEMBL1155979, “Synthesis of gibberellin derivatives with anti-tumor bioactivities” (Bioorg Med Chem Lett, 2009).
Values after ≈ are worked out from the molar mass of the structure shown. Active and inactive are the calls of the source. No cut-off for these calls is given here.

Tests used:
HL-60 = experiment: Cytotoxicity against human HL60 cells by MTT assay; format: functional, cell-based
[1] = Cytotoxicity against human BIU87 cells by MTT assay; format: functional, cell-based
[2] = molecular target: T1, DNA topoisomerase 1 (Homo sapiens) (UniProt P11387); experiment: Inhibition of topoisomerase I relaxation activity assessed as supercoiled pBR322 DNA
T1 sequence (whole entry): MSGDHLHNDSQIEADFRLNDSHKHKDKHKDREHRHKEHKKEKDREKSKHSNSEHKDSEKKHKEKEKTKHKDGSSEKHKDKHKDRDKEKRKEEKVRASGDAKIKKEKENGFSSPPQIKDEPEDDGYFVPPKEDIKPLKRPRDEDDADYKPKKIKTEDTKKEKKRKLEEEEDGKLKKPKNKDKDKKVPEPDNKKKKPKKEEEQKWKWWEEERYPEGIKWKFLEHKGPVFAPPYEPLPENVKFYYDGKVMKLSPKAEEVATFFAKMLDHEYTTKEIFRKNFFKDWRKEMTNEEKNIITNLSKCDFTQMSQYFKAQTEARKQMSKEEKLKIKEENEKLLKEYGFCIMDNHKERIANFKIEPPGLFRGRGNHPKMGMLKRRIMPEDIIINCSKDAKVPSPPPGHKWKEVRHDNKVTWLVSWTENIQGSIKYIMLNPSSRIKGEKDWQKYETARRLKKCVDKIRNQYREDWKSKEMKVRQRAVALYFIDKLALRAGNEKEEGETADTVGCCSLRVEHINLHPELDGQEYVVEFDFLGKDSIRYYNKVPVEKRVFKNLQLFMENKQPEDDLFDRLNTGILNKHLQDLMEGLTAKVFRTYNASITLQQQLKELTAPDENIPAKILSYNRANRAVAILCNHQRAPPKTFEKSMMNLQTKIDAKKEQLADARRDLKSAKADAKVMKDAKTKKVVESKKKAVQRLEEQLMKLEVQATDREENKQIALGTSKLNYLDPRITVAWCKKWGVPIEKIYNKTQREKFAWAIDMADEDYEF

HepG2 = experiment: Cytotoxicity against human HepG2 cells by MTT assay; format: functional, cell-based
MKN-28 = experiment: Cytotoxicity against human MKN28 cells by MTT assay; format: functional, cell-based
A549 = experiment: Cytotoxicity against human A549 cells by MTT assay; format: functional, cell-based
HT-29 = experiment: Cytotoxicity against human HT-29 cells by MTT assay; format: functional, cell-based
[3] = molecular target: T1, DNA topoisomerase 1 (Homo sapiens); experiment: Inhibition of topoisomerase I relaxation activity assessed as supercoiled pBR322 DNA at 8 ug/ml

SMILES	IC50 (HL-60) [µg/mL]	IC50 [1] [µg/mL]	inhibition [2]	IC50 (HepG2) [µM]	IC50 (MKN-28) [µM]	IC50 (A549) [µM]	IC50 (HT-29) [µM]	inhibition [3]
C=C1C[C@]23C[C@@]1(O)CC[C@H]2[C@@]12C=C[C@H](O)[C@](C)(C(=O)O1)[C@H]2[C@@H]3C(=O)OCc1ccccc1	> 100	> 100	–	–	–	–	–	–
C=C1C(=O)[C@]23C[C@@]1(Cl)CC[C@H]2[C@@]12C=CC(=O)[C@](C)(C(=O)O1)[C@H]2[C@@H]3C(=O)OC	6.5 (≈ 16.6 µM)	1 (≈ 2.56 µM)	Dose-dependent effect	39.8	4.8	60.3	2.9	Active
C=C1C(=O)[C@]23C[C@@]1(Cl)CC[C@H]2[C@@]12C=CC(=O)[C@](C)(C(=O)O1)[C@H]2[C@@H]3C(=O)OCc1ccccc1	2.7 (≈ 5.78 µM)	0.5 (≈ 1.07 µM)	–	17.9	6.8	28.8	4.5	–
C=C1C(=O)[C@]23C[C@@]1(OCC)CC[C@H]2[C@@]12C=CC(=O)[C@](C)(C(=O)O1)[C@H]2[C@@H]3C(=O)OCc1ccccc1	–	–	–	29.6	16.5	24.2	23.3	–
C=C1C[C@]23C[C@@]1(O)CC[C@H]2[C@@]12C=C[C@H](O)[C@](C)(C(=O)O1)[C@H]2[C@@H]3C(=O)OC	> 100	> 100	–	–	–	–	–	–
C=C1C(=O)[C@]23C[C@@]1(O)CC[C@H]2[C@@]12C=CC(=O)[C@](C)(C(=O)O1)[C@H]2[C@@H]3C(=O)OC	–	–	–	37.2	39.6	90.9	65.7	–
C=C1[C@H](O)[C@]23C[C@@]1(OC(C)=O)CC[C@H]2[C@@]12C=C[C@H](OC(C)=O)[C@](C)(C(=O)O1)[C@H]2[C@@H]3C(=O)OCc1ccccc1	> 100	> 100	–	–	–	–	–	–
C=C1C(=O)[C@]23C[C@@]1(F)CC[C@H]2[C@@]12C=CC(=O)[C@](C)(C(=O)O1)[C@H]2[C@@H]3C(=O)OCc1ccccc1	–	–	–	44.1	9.8	64.4	59.1	–
C=C1C[C@]23C[C@@]1(O)CC[C@H]2[C@@]12C=C[C@H](O)[C@](C)(C(=O)O1)[C@H]2[C@@H]3C(=O)O [GIBBERELLIN GA3]	> 100	> 100	–	–	–	–	–	–
C=C1C(=O)[C@]23C[C@@]1(F)CC[C@H]2[C@@]12C=CC(=O)[C@](C)(C(=O)O1)[C@H]2[C@@H]3C(=O)OC	–	–	–	40.6	4.1	38.9	72.7	–
C=C1C(=O)[C@]23C[C@@]1(O)CC[C@H]2[C@@]12C=CC(=O)[C@](C)(C(=O)O1)[C@H]2[C@@H]3C(=O)OCc1ccccc1	–	–	–	20.5	2.5	23.9	83.3	–
C=C1[C@H](O)[C@]23C[C@@]1(O)CC[C@H]2[C@@]12C=C[C@H](O)[C@](C)(C(=O)O1)[C@H]2[C@@H]3C(=O)OCc1ccccc1	> 100	> 100	–	–	–	–	–	–
C=C1C(=O)[C@]23C[C@@]1(I)CC[C@H]2[C@@]12C=CC(=O)[C@](C)(C(=O)O1)[C@H]2[C@@H]3C(=O)OCc1ccccc1	–	–	–	69.5	3	46	50.2	–
C=C1C(=O)[C@]23C[C@@]1(OC)CC[C@H]2[C@@]12C=CC(=O)[C@](C)(C(=O)O1)[C@H]2[C@@H]3C(=O)OCc1ccccc1	–	–	–	35	0.8	28.2	48.4	–
C=C1C(=O)[C@]23C[C@@]1(OC(C)=O)CC[C@H]2[C@@]12C=C[C@H](OC(C)=O)[C@](C)(C(=O)O1)[C@H]2[C@@H]3C(=O)OCc1ccccc1	> 40	> 40	–	–	–	–	–	–
C=C1C(=O)[C@]23C[C@@]1(OCC)CC[C@H]2[C@@]12C=CC(=O)[C@](C)(C(=O)O1)[C@H]2[C@@H]3C(=O)OC	–	–	–	120	82.7	18.2	34.1	–
C=C1C(=O)[C@]23C[C@@]1(I)CC[C@H]2[C@@]12C=CC(=O)[C@](C)(C(=O)O1)[C@H]2[C@@H]3C(=O)OC	–	–	–	87	6.7	53.2	51.9	–
C=C1C[C@]23C[C@@]1(O)CC[C@H]2[C@@]12C=CC(=O)[C@](C)(C(=O)O1)[C@H]2[C@@H]3C(=O)OCc1ccccc1	> 40	> 40	–	–	–	–	–	–
C=C1C[C@]23C[C@@]1(OC(C)=O)CC[C@H]2[C@@]12C=C[C@H](OC(C)=O)[C@](C)(C(=O)O1)[C@H]2[C@@H]3C(=O)OCc1ccccc1	> 100	> 100	–	–	–	–	–	–
C=C1[C@H](O)[C@]23C[C@@]1(O)CC[C@H]2[C@@]12C=C[C@H](O)[C@](C)(C(=O)O1)[C@H]2[C@@H]3C(=O)OC	> 100	> 100	–	–	–	–	–	–
C=C1C(=O)[C@]23C[C@@]1(OC)CC[C@H]2[C@@]12C=CC(=O)[C@](C)(C(=O)O1)[C@H]2[C@@H]3C(=O)OC	–	–	–	43.5	3.4	54.5	80.2	–
CC[C@]1(O)C[C@H]2CN(CCc3c([nH]c4ccccc34)[C@@](C(=O)OC)(c3cc4c(cc3OC)N(C=O)[C@H]3[C@@](O)(C(=O)OC)[C@H](OC(C)=O)[C@]5(CC)C=CCN6CC[C@]43[C@@H]65)C2)C1 [VINCRISTINE]	–	–	–	3.7	7.1	2.5	5.3	–
